These results are taken from patent US20250074910A1, “MENIN INHIBITOR AND USE THEREOF” (HITGEN INC., priority 2021, published 2025).

For assay [1], the system named is MV4-11. Put plainly: Cell proliferation inhibition (CellTiter-Glo), MV4-11. The note with it: MV4-11 cells. The assay is classed as cell-based. How it is done:
(§1) Test Example 2: Test of the Inhibitory Ability of Menin-MLL Interaction Inhibitors on Cell Proliferation
(§2) The inhibitory ability of the compounds of the present disclosure on the proliferation of tumor cell lines (including cell lines containing MLL fusion protein such as MV4-11, MOLM-13, THP-1 and NOMO-1, control cell lines without MLL fusion protein such as HL-60, K562 and MOLM-16, and cell lines containing NPM1 mutation such as OCI-AML3) was evaluated by using the cell viability analysis method. The cells were plated in 96-well plates at a certain concentration (e.g., 5,000-20,000 cells/well), and then an equal volume of culture medium containing 2 times the final concentration of the test compound (the final concentration ranging 10 from 1 nM to 10 μM) was added. The plates were placed in an incubator and cultured at 37° C. and 5% CO2 for 72-168 h. Before the test, an equal volume of CellTiter-Glo® Luminescent reagent was added, and the plate was incubated at room temperature for 10 min before detection using an ELISA reader (BMG LABTECH). The data were analyzed using GraphPad Prism software to obtain the IC50 value and compound fitting curve. The control compound 1 was prepared by referring to the method of Example 64 in WO2017214367.
(In general: ATP-based viability assays read luminescence as a measure of living cells.)

In assay [2] the target is Menin/MLL-4-43 peptide interaction (Homo sapiens (Human), UniProt O00255). In words: Menin-MLL interaction inhibitory activity assay (fluorescence polarization competition). The class given is binding. The note with it: FITC-MLL4-43-peptide, Menin recombinant protein. Here is the method:
Test Example 1: Menin-MLL Interaction Inhibitory Activity Assay
The inhibition of Menin/MLL-4-43 peptide interaction by small molecule inhibitors was quantitatively detected by fluorescence polarization competition assay. The experiment was performed in a 384-well plate (Corning, Cat #3575) using a reaction buffer consisting of 50 mM Tris, pH 7.5, 50 mM NaCl, and 1 mM DTT. A 40 μL reaction system included 10 μL of 8 nM Menin recombinant protein and 10 μL of the test compound at different concentrations. The compound was pre-incubated with Menin protein for 15 min, and then 20 μL of 10 nM FITC-MLL4-43-peptide was added. After incubation on a shaker at 25° C. for 60 min, the fluorescence polarization signal (FP 485 520 520) was read using BMG PHERAStar detection. The experimental data was analyzed and processed by GraphPad Prism 6 software to obtain the IC50 value. The control compound 1 was prepared by referring to the method of Example 64 in WO2017214367.
In general terms: Fluorescence polarisation rises when a labelled molecule tumbles more slowly, as on binding a larger partner.

The test system of assay [3] is MOLM-13. In words: Cell proliferation inhibition (CellTiter-Glo), MOLM-13. The class given is cell-based. The settings on record: MOLM-13 cells. How it is done:
as §1, §2

Assay [4] deals with OCI-AML3. Put plainly: Cell proliferation inhibition (CellTiter-Glo), OCI-AML3 (NPM1 mutation). The class given is cell-based. The settings on record: OCI-AML3 cells. Here is the method: as §1, §2

SMILES strings stand for the structures.

Chain of Menin/MLL-4-43 peptide interaction (O00255 whole entry, species assumed): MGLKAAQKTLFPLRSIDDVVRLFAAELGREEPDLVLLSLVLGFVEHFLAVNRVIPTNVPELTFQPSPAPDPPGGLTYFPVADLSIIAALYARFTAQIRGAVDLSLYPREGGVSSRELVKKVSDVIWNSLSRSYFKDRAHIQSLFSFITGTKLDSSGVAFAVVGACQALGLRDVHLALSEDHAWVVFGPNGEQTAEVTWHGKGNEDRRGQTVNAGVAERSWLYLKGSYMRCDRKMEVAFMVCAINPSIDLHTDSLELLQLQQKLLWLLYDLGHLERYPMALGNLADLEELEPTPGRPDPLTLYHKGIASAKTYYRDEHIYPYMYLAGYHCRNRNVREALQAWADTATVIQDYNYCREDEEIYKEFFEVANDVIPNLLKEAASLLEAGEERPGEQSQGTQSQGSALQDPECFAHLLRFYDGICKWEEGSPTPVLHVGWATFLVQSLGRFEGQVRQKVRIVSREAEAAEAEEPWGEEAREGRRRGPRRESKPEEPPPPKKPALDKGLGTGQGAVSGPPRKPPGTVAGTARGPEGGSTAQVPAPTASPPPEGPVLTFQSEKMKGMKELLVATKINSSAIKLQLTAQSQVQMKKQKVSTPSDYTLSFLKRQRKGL

Broadly, the GI50 is the concentration that inhibits growth by half. Low values mean more potent growth inhibition, high ones less potent growth inhibition. What is called IC50 is the concentration needed to halve the response being measured. Turning to `CC(C)N(C(=O)c1cc(F)ccc1Oc1cncnc1N1CC2(CCN(CC3CC4CCC3CC43COC(=O)N3)CC2)C1)C(C)C` (single isomer, unassigned) [Example 51-2], the GI50 came to 18.8 nM in assay [1] (72 h), 93.3 nM in assay [3] (168 h) and 35.3 nM in assay [4] (168 h). The IC50 in assay [2] was determined as 47.6 nM.

For `CCN(C(=O)c1cc(F)ccc1Oc1nncnc1N1CC2(CCN(C[C@H]3CC[C@]4(CC3)CC(=C(C)C)C(=O)N4)CC2)C1)C(C)C` [Example 60], the GI50 came to 35 nM in assay [1] (Homo sapiens, MV4-11, 72 h); 175 nM in assay [3] (Homo sapiens, MOLM-13, 168 h); 92.4 nM in assay [4] (Homo sapiens, OCI-AML-3, 168 h). The IC50 in assay [2] was determined as 28.4 nM.

As to `CC(C)N(C(=O)c1cc(F)ccc1Oc1nncnc1N1CC2(CCN(C[C@H]3CC[C@]4(CC3)CC(C(C)(C)O)C(=O)N4)CC2)C1)C(C)C` (single isomer, unassigned) [Example 59-1a], the concentration for 50% growth inhibition (GI50) came to 9.6 nM in assay [1] (Homo sapiens, MV4-11, 72 h); 36.2 nM in assay [3] (Homo sapiens, MOLM-13, 168 h); 18.5 nM in assay [4] (Homo sapiens, OCI-AML-3, 168 h). Further, the IC50 in assay [2] was found to be 7.8 nM.

Turning to `[2H]C([2H])([2H])C1C[C@]2(CC[C@@H](CN3CCC4(CC3)CN(c3ncnnc3Oc3ccc(F)cc3C(=O)N(C(C)C)C(C)C)C4)CC2)NC1=O` (single isomer, unassigned) [Example 43-2], the results for the 50% growth inhibitory concentration (GI50) in assay [1] (72 h), in assay [3] (168 h) and in assay [4] (168 h) were 90 nM, 137 nM and 80.6 nM, respectively. Besides, the IC50 in assay [2] stood at 48.7 nM.

For `CCN(C(=O)c1cc(F)ccc1Oc1cncnc1N1CC2(CCN(CC3CC4CCC3CC43COC(=O)N3)CC2)C1)C(C)C` (single isomer, unassigned) [Example 50-1b], the GI50 in assay [1] (Homo sapiens, MV4-11, 72 h) turned out to be 26.4 nM; in assay [3] (Homo sapiens, MOLM-13, 168 h), 88.9 nM; in assay [4] (168 h), 61.7 nM. Further, in assay [2], the IC50 came out at 21.8 nM.

`CC(C)N(C(=O)c1cc(F)ccc1Oc1nncnc1N1CC2(CCN(C[C@H]3CC[C@]4(CC3)CC(C)(C)C(=O)N4)CC2)C1)C1CCC1` [Example 32]: the GI50 in assay [1] (Homo sapiens, MV4-11, 72 h) came to 17.8 nM; in assay [3] (Homo sapiens, MOLM-13, 168 h), 179 nM; in assay [4] (Homo sapiens, OCI-AML-3, 168 h) it was 63.6 nM. For the same molecule, the half-maximal inhibitory concentration (IC50) in assay [2] amounted to 39.3 nM.

For the molecule `CCN(C(=O)c1cc(F)ccc1Oc1cncnc1N1CC2(CCN(CC3CC4CCC3CC43COC(=O)N3)CC2)C1)C(C)C` (single isomer, unassigned) [Example 50-2b], the GI50 in assay [1] (72 h) was 26.4 nM; in assay [3] (168 h) it was 93.3 nM; in assay [4] (168 h), 119 nM. In addition, the IC50 in assay [2] was 61.1 nM.

As for `CC(C)N(C(=O)c1cc(F)ccc1Oc1nncnc1N1CC2(CCN(CC3CCC4(CC3)CC3(CC3)C(=O)N4)CC2)C1)C(C)C` (single isomer, unassigned) [Example 44-1], the GI50 in assay [1] (Homo sapiens, MV4-11, 72 h) was 16.7 nM; in assay [3] (168 h), 111 nM; in assay [4] (168 h), 60.5 nM. The IC50 in assay [2] was 48.8 nM.

Consider `CCN(C(=O)c1cc(F)ccc1Oc1nncnc1N1CC2(CCN(C[C@H]3CC[C@]4(CC3)CC(C(C)(C)O)C(=O)N4)CC2)C1)C(C)C` (stereo partly drawn) [Example 58-1], for which the GI50 in assay [1] (Homo sapiens, MV4-11, 72 h) is 17.2 nM; in assay [3] (Homo sapiens, MOLM-13, 168 h) it was 88.9 nM; in assay [4] (Homo sapiens, OCI-AML-3, 168 h), 42.4 nM. Besides, the IC50 in assay [2] amounted to 2.9 nM.

For `CC(C)N(C(=O)c1cc(F)ccc1Oc1nncnc1N1CC2(CCN(C[C@H]3CC[C@]4(CC3)CC(C)(C)C(=O)N4)CC2)C1)C1CC1` [Example 30], the GI50 in assay [1] (Homo sapiens, MV4-11, 72 h) worked out at 35.2 nM; in assay [3] (Homo sapiens, MOLM-13, 168 h) it was 197 nM; in assay [4] (Homo sapiens, OCI-AML-3, 168 h), 52 nM. Further, in assay [2], the IC50 was 33 nM.

Turning to `CC(C)N(C(=O)c1cc(F)ccc1Oc1nncnc1N1CC2(CCN(CC3CCC4(CC3)CC3(CC3)C(=O)N4)CC2)C1)C(C)C` (single isomer, unassigned) [Example 44-2], the figures for the GI50 in assay [1] (72 h), in assay [3] (168 h) and in assay [4] (168 h) were 9.7 nM, 30.4 nM and 26.4 nM, respectively. The IC50 in assay [2] came to 7.9 nM.

As for `CC(C)N(C(=O)c1cc(F)ccc1Oc1cncnc1N1CC2(CCN(C[C@H]3CC[C@]4(CC3)CC(C)(C)C(=O)N4)CC2)C1)C1CCC1` [Example 25], the GI50 is 6.9 nM in assay [1] (Homo sapiens, MV4-11, 72 h); 86.3 nM in assay [3] (Homo sapiens, MOLM-13, 168 h); 64.3 nM in assay [4] (Homo sapiens, OCI-AML-3, 168 h). Further, in assay [2], the IC50 is 31.2 nM.

For the molecule `CC(C)N(C(=O)c1cc(F)ccc1Oc1cncnc1N1CC2(CCN(C[C@H]3CC[C@]4(CC3)CC(C)(C)C(=O)N4)CC2)C1)C(C)C` [Example 22], the GI50 in assay [1] (Homo sapiens, MV4-11, 72 h) amounted to 11.3 nM; in assay [4] (Homo sapiens, OCI-AML-3, 168 h) it was 24 nM. The IC50 in assay [2] was 16.6 nM.

In the case of `CC(C)N(C(=O)c1cc(F)ccc1Oc1nncnc1N1CC2(CCN(CC3CC4CCC3CC43COC(=O)N3)CC2)C1)C(C)C` (single isomer, unassigned) [Example 52-2a], the GI50 in assay [1] (72 h) stood at 43.6 nM; in assay [4] (168 h) it was 47.9 nM. In addition, the IC50 in assay [2] stood at 81.9 nM.

In the case of `CCN(C(=O)c1cc(F)ccc1Oc1cncnc1N1CC2(CCN(CC3CC4CCC3CC43COC(=O)N3)CC2)C1)C(C)C` (single isomer, unassigned) [Example 50-2a], the 50% growth inhibitory concentration (GI50) in assay [1] (72 h) was 20.5 nM; in assay [3] (168 h), 125 nM; in assay [4] (168 h), 56.4 nM. Besides, the IC50 in assay [2] was 21.1 nM.

For `CC(C)=C1C[C@]2(CC[C@@H](CN3CCC4(CC3)CN(c3ncnnc3Oc3ccc(F)cc3C(=O)N(C(C)C)C(C)C)C4)CC2)NC1=O` [Example 61], the GI50 in assay [1] (Homo sapiens, MV4-11, 72 h) was 23 nM; in assay [3] (Homo sapiens, MOLM-13, 168 h), 108 nM; in assay [4] (Homo sapiens, OCI-AML-3, 168 h), 72.1 nM. In addition, the IC50 in assay [2] came to 25.5 nM.

Regarding `CC(C)N(C(=O)c1cc(F)ccc1Oc1nncnc1N1CC2(CCN(C[C@H]3CC[C@]4(CC3)CC(C)(C)C(=O)N4)CC2)C1)C(C)C` [Example 27], the GI50 was found to be 13 nM in assay [1] (Homo sapiens, MV4-11, 72 h) and 32.1 nM in assay [4] (Homo sapiens, OCI-AML-3, 168 h). For the same molecule, in assay [2], the IC50 amounted to 16.3 nM.

With `CC(C)N(C(=O)c1cc(F)ccc1Oc1nncnc1N1CC2(CCN(C[C@H]3CC[C@]4(CC3)CC(C(C)(C)O)C(=O)N4)CC2)C1)C(C)C` (stereo partly drawn) [Example 59-1], the GI50 in assay [1] (Homo sapiens, MV4-11, 72 h) was determined as 15.3 nM; in assay [3] (Homo sapiens, MOLM-13, 168 h) it was 55.9 nM; in assay [4] (Homo sapiens, OCI-AML-3, 168 h) it was 34.7 nM. In addition, in assay [2], the IC50 came to 2.5 nM.

On to `CC(C)N(C(=O)c1cc(F)ccc1Oc1cncnc1N1CC2(CCN(CC3CC4CCC3CC43COC(=O)N3)CC2)C1)C(C)C` (single isomer, unassigned) [Example 51-1], for which the 50% growth inhibitory concentration (GI50) in assay [1] (Homo sapiens, MV4-11, 72 h) was 21.1 nM; in assay [3] (Homo sapiens, MOLM-13, 168 h), 101 nM; in assay [4] (Homo sapiens, OCI-AML-3, 168 h), 68.5 nM. The IC50 in assay [2] turned out to be 35.3 nM.

With `CCN(C(=O)c1cc(F)ccc1Oc1cncnc1N1CC2(CCN(C[C@H]3CC[C@]4(CC3)CC(C)(C)C(=O)N4)CC2)C1)C(C)C` [Example 21], the 50% growth inhibitory concentration (GI50) in assay [1] (Homo sapiens, MV4-11, 72 h) is 13.1 nM; in assay [4] (Homo sapiens, OCI-AML-3, 168 h), 39.8 nM. For the same molecule, in assay [2], the half-inhibitory concentration (IC50) was found to be 9.8 nM.

Consider `CCN(C(=O)c1cc(F)ccc1Oc1cncnc1N1CC2(CCN(CC3CC4CCC3CC43CCC(=O)N3)CC2)C1)C(C)C` (single isomer, unassigned) [Example 3-1], for which the GI50 came out at 324 nM in assay [1] (72 h); 47.4 nM in assay [3] (Homo sapiens, MOLM-13, 168 h); 66.5 nM in assay [4] (Homo sapiens, OCI-AML-3, 168 h). The half-maximal inhibitory concentration (IC50) in assay [2] was found to be 29 nM.

With `CCN(C(=O)c1cc(F)ccc1Oc1nncnc1N1CC2(CCN(C[C@H]3CC[C@]4(CC3)CC(C)C(=O)N4)CC2)C1)C(C)C` (single isomer, unassigned) [Example 40-1], the GI50 in assay [1] (72 h) is 41.2 nM; in assay [3] (Homo sapiens, MOLM-13, 168 h), 122 nM; in assay [4] (Homo sapiens, OCI-AML-3, 168 h), 199 nM. For the same molecule, the IC50 in assay [2] is 14.8 nM.
